Active and inactive are the calls of the source. The rule behind the calls is not given here.
Key:
[1] = tested on: L02; assay: Hepatoprotective activity against concanavalin A induced liver injury in human HL7702 cells assessed as cell survival rate at 5 uM preincubated for 12 hrs followed by concanavalin A stimulation for 12 hrs by MTT assay (reference value: 51.37%); assay type: functional; details: time 24 hrs, read-out: Survival
[2] = tested on: L02; assay: Cytotoxicity against human HL7702 cells ssessed as cell survival rate at 5 uM for 12 hrs by MTT assay; assay type: toxicity, cell-based; details: l02, 12 h
[3] = tested on: L02; assay: Hepatoprotective activity against concanavalin A induced human HL7702 cell apoptosis assessed as increase in Bcl-2 expression level at 5 uM preincubated for 12 hrs followed by concanavalin A stimulation for 12 hrs by Western blot analysis; assay type: functional, cell-based; details: time 24.0 hrs
[4] = tested on: L02; assay: Hepatoprotective activity against concanavalin A induced human HL7702 cell apoptosis assessed as decrease in cleaved caspase-3 level at 5 uM preincubated for 12 hrs followed by concanavalin A stimulation for 12 hrs by Western blot analysis; assay type: functional, cell-based; details: time 24.0 hrs
[5] = tested on: L02; assay: Hepatoprotective activity against concanavalin A induced human HL7702 cell apoptosis assessed as decrease in Bax expression level at 5 uM preincubated for 12 hrs followed by concanavalin A stimulation for 12 hrs by Western blot analysis; assay type: functional, cell-based; details: time 24.0 hrs
[6] = tested on: L02; assay: Hepatoprotective activity against concanavalin A induced human HL7702 cell apoptosis assessed as nuclear morphological changes at 5 uM preincubated for 12 hrs followed by concanavalin A stimulation for 12 hrs by Hoechst 33342 staining based fluorescence microscopy; assay type: functional; details: time 24.0 hrs
[7] = tested on: L02; assay: Hepatoprotective activity against concanavalin A induced livery injury in human HL7702 cells assessed as decrease in JAK2 phosphorylation level at 5 uM preincubated for 12 hrs followed by concanavalin A stimulation for 12 hrs by Western blot analysis; assay type: functional, cell-based; details: time 24.0 hrs
[8] = tested on: L02; assay: Hepatoprotective activity against concanavalin A induced livery injury in human HL7702 cells assessed as decrease in STAT3 phosphorylation level at 5 uM preincubated for 12 hrs followed by concanavalin A stimulation for 12 hrs by Western blot analysis; assay type: functional, cell-based; details: time 24.0 hrs
[9] = tested on: L02; assay: Hepatoprotective activity against concanavalin A induced livery injury in human HL7702 cells assessed as increase in HO-1 expression level at 5 uM preincubated for 12 hrs followed by concanavalin A stimulation for 12 hrs by Western blot analysis; assay type: functional, cell-based; details: time 24.0 hrs
[10] = tested on: Mus musculus; assay: (§1) Hepatoprotective activity against concanavalin A induced C57BL/6 mouse livery injury model assessed as decrease in phosphorylated STAT3 level in liver at 150 mg/kg, ip once daily for 2 weeks followed by concanavalin A stimulation and measured after 12 hrs by DAB staining based immunohistological anlaysis; assay type: functional, organism-based
[11] = tested on: Mus musculus; assay: Hepatoprotective activity against concanavalin A induced C57BL/6 mouse livery injury model assessed as decrease in serum AST level at 150 mg/kg, ip once daily for 2 weeks followed by concanavalin A stimulation and measured after 12 hrs; assay type: functional, organism-based
[12] = tested on: Mus musculus; assay: Hepatoprotective activity against concanavalin A induced C57BL/6 mouse livery injury model assessed as decrease in Bax level at 150 mg/kg, ip once daily for 2 weeks followed by concanavalin A stimulation and measured after 12 hrs by Western blot analysis; assay type: functional, organism-based
[13] = tested on: Mus musculus; assay: Hepatoprotective activity against concanavalin A induced C57BL/6 mouse livery injury model assessed as decrease in serum IL-6 level at 150 mg/kg, ip once daily for 2 weeks followed by concanavalin A stimulation and measured after 12 hrs by ELISA; assay type: functional, organism-based
[14] = tested on: Mus musculus; assay: Hepatoprotective activity against concanavalin A induced C57BL/6 mouse livery injury model assessed as increase in Bcl-2 level at 150 mg/kg, ip once daily for 2 weeks followed by concanavalin A stimulation and measured after 12 hrs by Western blot analysis; assay type: functional, organism-based
[15] = tested on: Mus musculus; assay: as §1, with “cleaved caspase-3” for “phosphorylated STAT3”; assay type: functional, organism-based
[16] = tested on: L02; assay: Hepatoprotective activity against concanavalin A induced livery injury in human HL7702 assessed as decrease in IL-6 expression level at 5 uM preincubated for 24 hrs followed by concanavalin A stimulation for 12 hrs by ELISA assay; assay type: functional, cell-based; details: time 36.0 hrs
[17] = tested on: Mus musculus; assay: Hepatoprotective activity against concanavalin A induced C57BL/6 mouse livery injury model assessed as decrease in severity of liver damage at 150 mg/kg, ip once daily for 2 weeks followed by concanavalin A stimulation and measured after 12 hrs by H&E staining based […]; assay type: functional, organism-based
[18] = tested on: Mus musculus; assay: Hepatoprotective activity against concanavalin A induced C57BL/6 mouse livery injury model assessed as decrease in STAT3 phosphorylation level at 150 mg/kg, ip once daily for 2 weeks followed by concanavalin A stimulation and measured after 12 hrs by Western blot analysis; assay type: functional, organism-based
[19] = tested on: Mus musculus; assay: Hepatoprotective activity against concanavalin A induced C57BL/6 mouse livery injury model assessed as decrease in serum ALT level at 150 mg/kg, ip once daily for 2 weeks followed by concanavalin A stimulation and measured after 12 hrs; assay type: functional, organism-based
[20] = tested on: L02; assay: Hepatoprotective activity against concanavalin A induced livery injury in human HL7702 assessed as decrease in IL-6 expression level at 5 uM preincubated for 12 hrs followed by concanavalin A stimulation for 12 hrs by Western blot analysis; assay type: functional, cell-based; details: time 24.0 hrs
[21] = tested on: Mus musculus; assay: Hepatoprotective activity against concanavalin A induced C57BL/6 mouse livery injury model assessed as decrease in JAK2 phosphorylation level at 150 mg/kg, ip once daily for 2 weeks followed by concanavalin A stimulation and measured after 12 hrs by Western blot analysis; assay type: functional, organism-based
[22] = tested on: Mus musculus; assay: Hepatoprotective activity against concanavalin A induced C57BL/6 mouse livery injury model assessed as decrease in cleaved caspase 3 level at 150 mg/kg, ip once daily for 2 weeks followed by concanavalin A stimulation and measured after 12 hrs by Western blot analysis; assay type: functional, organism-based

Row | Structure (SMILES) | viability at 5 µM [1] | Activity [2] | Activity [3] | Activity [4] | Activity [5] | Activity [6] | further results
1 | COc1cc2c(c(OC)c1OC)-c1c(c(Cl)c(OC)c(OC)c1OC(=O)CCl)CC(C)C(C)C2 (configuration not stated) | 68.4% |  |  |  |  |  | 
2 | COc1cc2c(c(OC)c1OC)-c1c(c(N)c(OC)c(OC)c1OS(=O)(=O)c1ccc(C)cc1)CC(C)C(C)C2 (configuration not stated) | 89% | Non-Toxic | Active | Active | Active | Active | 
3 | COc1c(Cl)c2c(c(OC)c1OC)-c1c(c(Cl)c(OC)c(OC)c1OC(=O)c1cccs1)CC(C)C(C)C2 (configuration not stated) | 80.4% |  |  |  |  |  | 
4 | COC1=C(OC)C(OC)CC2=C1c1c(c([N+](=O)[O-])c(OC)c(OC)c1OCCCO)CC(C)C(C)C2 (configuration not stated) | 73.1% |  |  |  |  |  | 
5 | COc1cc2c(c(OC)c1OC)-c1c(c([N+](=O)[O-])c(OC)c(OC)c1OC(=O)c1cccnc1)CC(C)C(C)C2 (configuration not stated) | 49.9% |  |  |  |  |  | 
6 | COc1cc2c(c(OC)c1OC)-c1c(c(Cl)c(OC)c(OC)c1OC(=O)c1cccnc1)CC(C)C(C)C2 (configuration not stated) | 93.7% | Non-Toxic | Active | Active | Active | Active | Activity [7]: Active; Activity [8]: Active; Activity [9]: Active
7 | COC(=O)c1ccc(-c2ccc(C(=O)OC)cc2)cc1 [BIPHENYL DIMETHYL DICARBOXYLATE] | 63.9% |  |  |  |  |  | Activity [10]: Active; Activity [11]: Active; Activity [12]: Active; Activity [13]: Active; Activity [14]: Active; Activity [15]: Active; Activity [16]: Active; Activity [17]: Active; Activity [18]: Active; Activity [19]: Active; Activity [20]: Active; Activity [21]: Active; Activity [22]: Active
8 | COc1c(Cl)c2c(c(OC)c1OC)-c1c(c(Cl)c(OC)c(OC)c1OC(=O)c1ccc([N+](=O)[O-])cc1)CC(C)C(C)C2 (configuration not stated) | 59.4% |  |  |  |  |  | 
9 | COc1cc2c(c(OC)c1OC)-c1c(O)c(OC)c(OC)c(N)c1CC(C)C(C)C2 (configuration not stated) | 97.1% | Non-Toxic | Active | Active | Active | Active | 
10 | COc1cc2c(c(OC)c1OC)-c1c(c([N+](=O)[O-])c(OC)c(OC)c1OC(=O)/C=C/c1ccccc1)CC(C)C(C)C2 (configuration not stated) | 97.4% | Non-Toxic | Active | Active | Active | Active | 
11 | COc1c(Cl)c2c(c(OC)c1OC)-c1c(c(Cl)c(OC)c(OC)c1OC(=O)c1cccnc1)CC(C)C(C)C2 (configuration not stated) | 79.4% |  |  |  |  |  | 
12 | COc1c(Cl)c2c(c(OC)c1OC)-c1c(c(Cl)c(OC)c(OC)c1OC(=O)/C=C/c1ccccc1)CC(C)C(C)C2 (configuration not stated) | 89.7% | Non-Toxic | Active | Active | Active | Active | Activity [7]: Active; Activity [8]: Active; Activity [9]: Active
13 | COc1ccc(C(=O)Oc2c(OC)c(OC)c(Cl)c3c2-c2c(cc(OC)c(OC)c2OC)CC(C)C(C)C3)cc1 (configuration not stated) | 70% |  |  |  |  |  | 

— ChEMBL document CHEMBL5131386, “Synthesis and biological evaluation of novel schisanhenol derivatives as potential hepatoprotective agents” (Eur J Med Chem, 2022)
